Source: patent publication US5430062A, “Stilbene derivatives as anticancer agents” (priority 1993, dated 1995)
pIC50: −log10 of the molar value. Like-named read-outs stand apart in the source and are kept apart here.

Key:
[1] = test system: MLM melanoma; experiment: MTT cytotoxicity assay, MLM
[2] = test system: A-549 lung carcinoma; experiment: MTT cytotoxicity assay, A-549; conditions: Homo sapiens, A549, […]
[3] = test system: MCF-7 breast carcinoma; experiment: MTT cytotoxicity assay, MCF-7; conditions: Homo sapiens, MCF7, […]
[4] = test system: HT-29 colon adenocarcinoma; experiment: MTT cytotoxicity assay, HT-29; conditions: Homo sapiens, HT-29, […]
[5] = test system: SKMEL-5 melanoma; experiment: MTT cytotoxicity assay, SKMEL-5; conditions: Homo sapiens, SK-MEL-5, […], read-out: Cytotoxicity ED50, SKMEL-5
[6] = […], read-out: Cytotoxicity ED50, MLM, MLM, MTT, six days
[7] = read-out: Cytotoxicity ED50, A-549, A-549, MTT, six days
[8] = read-out: Cytotoxicity ED50, MCF-7, MCF-7, MTT, six days
[9] = read-out: Cytotoxicity ED50, HT-29, HT-29, MTT, six days
[10] = […], read-out: Cytotoxicity ED50, MLM
[11] = read-out: Cytotoxicity ED50, A-549
[12] = read-out: Cytotoxicity ED50, MCF-7
[13] = read-out: Cytotoxicity ED50, HT-29

Row | Molecule | pIC50 [1, 6] | pIC50 [2, 7] | pIC50 [3, 8] | pIC50 [4, 9] | pIC50 [5] | pIC50 [1, 10] | pIC50 [2, 11] | pIC50 [3, 12] | pIC50 [4, 13] | pIC50 ([1]; read-out: Cytotoxicity ED50, MLM, MLM, MTT, six days, 8640 min)
1 | COc1cccc(/C=C/c2cc(OC)c(OC)c(OC)c2)c1 [6b] | < 4.60 | 5.01 | 4.91 | 5.14 | 4.98 | – | – | – | – | –
2 | COc1ccccc1/C=C/c1cc(OC)c(OC)c(OC)c1 [6c] | – | – | – | – | 4.87 | < 4.60 | 4.91 | 4.74 | 4.92 | –
3 | COc1ccc(/C=C/c2cc(OC)c(OC)c(OC)c2)c(Cl)c1 [6e] | < 4.60 | < 4.60 | < 4.60 | < 4.60 | < 4.60 | – | – | – | – | –
4 | COc1cc(/C=C/c2ccccc2)cc(OC)c1OC [6f] | – | – | – | – | < 4.60 | < 4.60 | < 4.60 | < 4.60 | < 4.60 | –
5 | COc1cc(/C=C/c2ccc(Cl)cc2)cc(OC)c1OC [6g] | – | – | – | – | < 4.60 | < 4.60 | < 4.60 | < 4.60 | < 4.60 | –
6 | COc1cc(/C=C/c2ccc(Br)cc2)cc(OC)c1OC [6h] | – | – | – | – | 5.19 | 5.29 | 5.19 | 5.04 | 4.90 | –
7 | COc1cc(/C=C/c2ccncc2)cc(OC)c1OC [6i, 1-(4-Pyridyl)-2-(3,4,5-trimethoxyphenyl)ethene] | – | – | – | – | < 4.60 | < 4.60 | < 4.60 | < 4.60 | < 4.60 | –
8 | COc1cc(/C=C/c2cccnc2)cc(OC)c1OC [6j, 1-(3-Pyridyl)-2-(3,4,5-trimethoxyphenyl)ethene] | – | – | – | – | < 4.60 | < 4.60 | < 4.60 | < 4.60 | < 4.60 | –
9 | COc1cc(/C=C/c2ccc(O[Si](C)(C)C(C)(C)C)cc2)cc(OC)c1OC [6m, (E)-1-[(4-t-Butyldimethylsilyloxy)phenyl]-2-(3,4,5-trimethoxyphenyl)ethene] | – | – | – | – | < 4.60 | < 4.60 | < 4.60 | < 4.60 | < 4.60 | –
10 | COc1cc(/C=C/c2ccc(OC(C)=O)cc2)cc(OC)c1OC [6p, (E)-1-(4-Acetoxyphenyl)-2-(3,4,5-trimethoxyphenyl)ethene] | – | – | – | – | 5.34 | 4.89 | 5.01 | 5.02 | 5.27 | –
11 | COc1ccc(/C=C/c2ccccc2)cc1OC [6q, (E)-1-(3,4-Dimethoxyphenyl)-2-phenylethene] | – | – | – | – | < 4.60 | < 4.60 | < 4.60 | < 4.60 | < 4.60 | –
12 | COc1ccc(/C=C/c2ccccc2)c(OC)c1OC [6r, (E)-1-Phenyl-2-(2,3,4-trimethoxyphenyl)ethene] | – | – | – | – | < 4.60 | < 4.60 | < 4.60 | < 4.60 | < 4.60 | –
13 | COc1cc(/C=C/c2cc(OC)c(OC)c(OC)c2)cc(OC)c1 [6s] | – | – | – | – | < 4.60 | < 4.60 | < 4.60 | < 4.60 | < 4.60 | –
14 | COc1cc(/C=C/c2ccc(OC)c(OC)c2OC)cc(OC)c1OC [6t] | – | – | – | – | 4.97 | 4.62 | 4.90 | 4.83 | 4.99 | –
15 | COc1cc(/C=C/c2cc(OC)c(OC)c(OC)c2)cc(OC)c1OC [6u] | – | – | – | – | < 4.60 | < 4.60 | < 4.60 | < 4.60 | < 4.60 | –
16 | COc1cc(OC)c(OC)cc1/C=C/c1cc(OC)c(OC)c(OC)c1 [6v] | – | – | – | – | < 4.60 | < 4.60 | < 4.60 | < 4.60 | < 4.60 | –
17 | COc1cc(OC)c(OC)cc1/C=C/c1ccccc1 [6w] | – | – | – | – | < 4.60 | < 4.60 | < 4.60 | 5.07 | < 4.60 | –
18 | COc1cc(OC)c(/C=C/c2ccccc2)c(OC)c1 [6x] | – | – | – | – | < 4.60 | < 4.60 | < 4.60 | < 4.60 | < 4.60 | –
19 | COc1cc(/C=C/c2ccc(OC)c(OC)c2)cc(OC)c1 [6y] | – | – | – | – | < 4.60 | < 4.60 | < 4.60 | < 4.60 | < 4.60 | –
20 | COc1cc(/C=C/c2ccc(N)cc2)cc(OC)c1OC [6z, (E)-1-(4-Aminophenyl)-2-(3,4,5-trimethoxyphenyl)ethene] | – | – | – | – | < 4.60 | < 4.60 | < 4.60 | < 4.60 | < 4.60 | –
21 | COc1cccc(CCc2cc(OC)c(OC)c(OC)c2)c1 [8b] | – | – | – | – | 5.04 | < 4.60 | 4.93 | 4.91 | 5.12 | –
22 | COc1ccccc1CCc1cc(OC)c(OC)c(OC)c1 [8c] | – | – | – | – | 4.70 | < 4.60 | 4.87 | 4.93 | < 4.60 | –

Row | Molecule | pIC50 [1, 6] | pIC50 [2, 7] | pIC50 [3, 8] | pIC50 [4, 9] | pIC50 [5] | pIC50 [1, 10] | pIC50 [2, 11] | pIC50 [3, 12] | pIC50 [4, 13] | pIC50 ([1]; read-out: Cytotoxicity ED50, MLM, MLM, MTT, six days, 8640 min)
23 | COc1cc(CCc2ccccc2)cc(OC)c1OC [8f] | – | – | – | – | < 4.60 | < 4.60 | < 4.60 | < 4.60 | < 4.60 | –
24 | COc1cc(CCc2ccncc2)cc(OC)c1OC [8i, 1-(4-Pyridyl)-2-(3,4,5-trimethoxyphenyl)ethane] | – | – | – | – | < 4.60 | < 4.60 | < 4.60 | < 4.60 | < 4.60 | –
25 | COc1cc(CCc2cccnc2)cc(OC)c1OC [8j, 1-(3-Pyridyl)-2-(3,4,5-trimethoxyphenyl)ethane] | – | – | – | – | < 4.60 | < 4.60 | 4.91 | < 4.60 | < 4.60 | –
26 | COc1cc(CCc2ccc(O)cc2)cc(OC)c1OC [8o, 1-(4-hydroxyphenyl)-2-(3,4,5-trimethoxyphenyl)ethane] | – | – | – | – | < 4.60 | < 4.60 | < 4.60 | < 4.60 | < 4.60 | –
27 | COc1cc(CCc2ccc(OC(C)=O)cc2)cc(OC)c1OC [8p] | – | – | – | – | < 4.60 | < 4.60 | 4.72 | < 4.60 | < 4.60 | –
28 | COc1ccc(CCc2ccccc2)cc1OC [8q] | – | – | – | – | < 4.60 | < 4.60 | < 4.60 | < 4.60 | < 4.60 | –
29 | COc1ccc(CCc2ccccc2)c(OC)c1OC [8r] | – | – | – | – | < 4.60 | < 4.60 | < 4.60 | < 4.60 | < 4.60 | –
30 | COc1cc(CCc2ccc(OC)c(OC)c2OC)cc(OC)c1OC [8t] | – | – | – | – | < 4.60 | < 4.60 | < 4.60 | < 4.60 | < 4.60 | –
31 | COc1cc(CCc2cc(OC)c(OC)c(OC)c2)cc(OC)c1OC [8u] | – | – | – | – | < 4.60 | < 4.60 | < 4.60 | < 4.60 | < 4.60 | –
32 | COc1cc(OC)c(OC)cc1CCc1cc(OC)c(OC)c(OC)c1 [8v] | – | – | – | – | < 4.60 | < 4.60 | < 4.60 | < 4.60 | < 4.60 | –
33 | COc1ccc(C(=O)Nc2cc(OC)c(OC)c(OC)c2)cc1OC [11b] | – | – | – | – | < 4.60 | < 4.60 | < 4.60 | < 4.60 | < 4.60 | –
34 | COc1ccc(C(=O)Nc2cc(OC)c(OC)c(OC)c2)cc1 [11c, 4-Methoxy-N-(3,4,5-trimethoxyphenyl)benzamide] | – | – | – | – | < 4.60 | < 4.60 | < 4.60 | < 4.60 | < 4.60 | –
35 | COc1ccc(C(=O)Nc2cc(OC)cc(OC)c2)cc1 [11e] | – | – | – | – | < 4.60 | < 4.60 | < 4.60 | < 4.60 | < 4.60 | –
36 | COc1cc(NC(=O)c2cc(OC)c(OC)c(OC)c2)cc(OC)c1OC [11f] | – | – | – | – | < 4.60 | < 4.60 | < 4.60 | < 4.60 | < 4.60 | –
37 | COc1ccc(CNc2cc(OC)c(OC)c(OC)c2)cc1OC [12b] | – | – | – | – | < 4.60 | < 4.60 | < 4.60 | < 4.60 | < 4.60 | –
38 | COc1ccc(CNc2cc(OC)cc(OC)c2)cc1 [12e] | – | – | – | – | < 4.60 | < 4.60 | < 4.60 | < 4.60 | < 4.60 | –
39 | COc1cc(CNc2cc(OC)c(OC)c(OC)c2)cc(OC)c1OC [12f] | – | – | – | – | < 4.60 | < 4.60 | < 4.60 | < 4.60 | < 4.60 | –
40 | COc1cc(/C=C\c2ccc(C)cc2)cc(OC)c1OC [15d, (Z)-(4-Methylphenyl)-2-(3,4,5-trimethoxyphenyl)ethene] | – | – | – | – | 9.08 | 8.18 | 9.03 | 7.62 | 8.64 | –
41 | CCc1ccc(/C=C\c2cc(OC)c(OC)c(OC)c2)cc1 [15e, (Z)-(4-Ethylphenyl)-2-(3,4,5-trimethoxyphenyl)ethene] | – | – | – | – | 9.07 | 8.12 | 7.92 | 7.14 | 8.57 | –
42 | CCCOc1ccc(/C=C/c2cc(OC)c(OC)c(OC)c2)cc1 [16b, (E)-1-(4-n-Propoxyphenyl)-2-(3,4,5-trimethoxyphenyl)ethene] | – | – | – | – | < 4.60 | < 4.60 | 5.04 | 4.90 | < 4.60 | –
43 | COc1cc(/C=C/c2ccc(C)cc2)cc(OC)c1OC [16d, (E)-(4-Methylphenyl)-2-(3,4,5-trimethoxyphenyl)ethene] | – | – | – | – | 6.10 | 5.20 | 5.96 | 5.72 | 6.05 | –
44 | (E)-1-[4-(Benzyloxy)-3,5-(dimethoxy)phenyl]-2-(4-methoxyphenyl)ethene [16j] | – | – | – | – | – | – | – | – | – | < 4.60
